From patent publication US8168596B2, “Use of cycloartane compounds for treating arthritis” (NuLiv Holding Inc., priority 2008, dated 2012)

Columns and labels:
[1] = system: SW1353 cells; experiment: Cell viability assay (Cell Counting Kit 8); assay type: cell-based, human; conditions: AS4 0.01-20 μM
Method: The culture medium was replaced every other day. After confluence, the cells were subcultured following trypsinization. For subcultures, cells were harvested after brief treatment with 0.1% trypsin/ethylenediaminetetraacetic acid (EDTA) solution and seeded at a dilution of 1:10. Cells between passages 12 and 45 were used for studies.
Then SW1353 cells were treated with astragaloside IV (AS4) at a concentration of 0.01 μM, 0.1 μM, 1 μM, 2 μM, 5 μM, 10 μM or 20 μM, followed by incubating for 24 hours or 48 hours. Later, the SW1353 cell culture in each well was treated with 10 μl Cell Counting Kit 8 solution (Dojindo molecular technologies, Gaithersburg, Md., USA), followed by incubation at 37° C. in a humidified incubator with 5% CO2 for 1-4 hours. Then, the absorbance of the SW1353 cell cultures was detected by an EIA reader at 450 nm. Compared with that of the control group, the viability of the experimental groups was analyzed.

[2] = system: Type II Collagen; experiment: Western blot of Type II Collagen in pre-treated human chondrocytes (HCHs); assay type: cell-based; conditions: IL-1β-pre-treated HCH culture medium; compounds 0.1 μM, 48 h
[3] = system: MMP1; experiment: Western blotting of MMP1 protein expression induced by PMA in SW1353 cells (Example 2); assay type: cell-based, human; conditions: for level of MMP1 protein expression (group without AS4 treatment set as 1): then PMA 100 ng/mL 24 h, culture medium
Method: Alternatively, the control group was treated with 0.1% dimethyl sulfoxide (DMSO). Phorbol myristate acetate (PMA; Sigma, St. Louis, Mo.) at a concentration of 100 ng/mL was then added into each well and the cells were incubated for 24 hours. The culture medium was collected for western blotting analysis.
Western blotting analysis was carried out based on the following procedure. Cells were washed and lysed in 0.2 mL of lysis buffer (1% NP-40, 50 mM Tris-HCl, pH 7.4, 180 mM NaCl, 1 mM EDTA, 1 mM PMSF, 1 mM NaF, 10 mM Na3VO4) for 30 min at 4° C. After centrifugation at 17500 g for 15 min, the supernatants of cell lysate were collected. Protein concentrations of the samples were measured using the bicinchoninic acid (BCA) protein assay kit according to the manufacturer's protocol (Pierce, Rockford, Ill., USA). Equal amounts of protein samples of concentrated conditioned medium (100 μg) or cell lysate supernatants (50 μg) were mixed with an appropriate volume of 4×SDS sampling buffer and separated on a 8% SDS-PAGE gel. The protein bands separated on the SDS-PAGE gel were blotted onto a polyvinylidene fluoride (PVDF) membrane. The blotted PVDF membrane was washed twice and blocked in freshly prepared Tris-buffered saline (TBS) containing 0.1% Tween-20 and 7% skim milk (TBST) for 2 hours at room temperature. The PVDF membrane was then incubated with a primary antibody against MMP1 protein (Santa Cruz Biotechnology, Santa Cruz, Calif.) for 18 hours at 4° C. Horseradish peroxidase-conjugated anti-goat antibody was used as the secondary antibody. Signals were visualized by an enhanced chemiluminescence kit (Clonetech, Palo Alto, Calif., USA) followed by exposure to X-ray films.
In another testing, the SW1353 cells were treated with 0.1 μM astragaloside IV (AS4), followed by incubation for 24 hours. PMA at a concentration of 100 ng/mL was then added into each well. The culture medium was collected after 6, 12, 18 and 24 hours of PMA treatment for western blotting analysis.

[4] = system: MMP1 mRNA; experiment: RT-PCR of MMP1 mRNA expression in SW1353 cells; assay type: cell-based, human; conditions: for MMP1 mRNA expression after AS4 treatment followed by PMA: then 100 ng/mL PMA 24 h; for MMP1 mRNA expression after only AS4 treatment: 24 h, no PMA
Method: First of all, the interaction between TIMP1 mRNA expression and MMP1 mRNA expression in human SW1353 cell line after only AS4 treatment was studied. […] The SW1353 cells were then collected for RT-PCR analysis.
In a second testing, the effect of AS4 treatment followed by PMA treatment was also studied. The SW1353 cells were first treated with astragaloside IV (AS4) at a concentration of 0.01 μM, 0.1 μM, or 1 μM, followed by incubation for 24 hours. Then PMA was added into each well, followed by incubation for 24 hours. These SW1353 cells were also collected for RT-PCR analysis in the end of the second testing.
Total RNAs were isolated from the cultured human cells using NucleoSpin RNAII Kit (Macherey-Nagel Inc., PA, USA). Five μg of RNA was reverse transcribed in a total 20 μl transcription mixture. The reaction tube containing primers (oligo(dT)), RNA, 10 mM dNTP Mix, and DEPC-treated water was first incubated at 65° C. for 5 minutes. Eight μl master reaction mixture containing 4 μl 5× cDNA synthesis Buffer, 1 μl 0.1 M DTT, 1 μl RNase OUT™ (40U/μl), 1 μl DEPC-Treated water, and 1 μl SuperScript™II was then added into the reaction tube. The reaction tube was then incubated at 50° C. for 60 minutes, followed by incubation at 85° C. for 5 minutes. Finally, 1 μl RNase H was added at 37° C. and the reaction tube was incubated for 20 minutes. The resulting cDNA was further amplified by PCR. The relevant primers for the following PCR reaction were listed below.
(i) The MMP1 forward primer is 5′-ACTCTGGAGTAATGTCACACCT-3′ (SEQ ID NO: 1), and the MMP1 reverse primer is 5′-GTTGGTCCACCTTTCATCTTCA-3′ (SEQ ID NO: 2);
In addition, the PCR reaction of MMP1 cDNA was preformed as follows: 95° C. for 5 min, followed by 35 cycles of 94° C. for 30 sec, 60° C. for 30 sec, and 72° C. for 30 sec, and then 72° C. for 10 min followed by maintaining at 4° C. Similarly, the PCR reaction of TIMP1 cDNA was performed as follows: 94° C. for 5 min, followed by 35 cycles of 94° C. for 30 sec, 60° C. for 30 sec, and 72° C. for 30 sec, and then 72° C. for 10 min followed by maintaining at 4° C. The PCR reaction of GAPDH cDNA was performed as follows: 94° C. for 5 min, followed by 18 cycles of 94° C. for 30 sec, 54° C. for 30 sec, and 72° C. for 30 sec, and then 72° C. for 30 sec followed by maintaining at 4° C. These PCR products were analyzed by electrophoresis on a 1.5% gel.

[5] = system: ERK1 (P44) and ERK2 (P42); experiment: Western blotting of ERK1/ERK2 in PMA-treated SW1353 cells; assay type: cell-based, human; conditions: PMA 100 ng/mL 2 h, then 1 μM AS4 24 h; value without AS4 2.7

CC(C)(O)[C@@H]1CC[C@](C)([C@H]2[C@@H](O)C[C@@]3(C)[C@@H]4C[C@H](O[C@@H]5O[C@H](CO)[C@@H](O)[C@H](O)[C@H]5O)[C@H]5C(C)(C)[C@@H](O[C@@H]6OC[C@@H](O)[C@H](O)[C@H]6O)CC[C@@]56C[C@@]46CC[C@]23C)O1 [AS4, Astragaloside IV]
toxicity to SW1353 cells ([1]; 24 or 48 hours): non-toxic
cell proliferation compared with control group ([1]; 24 hours): did not change significantly
cell proliferation compared with control group ([1]; 48 hours): did not change significantly
Type II Collagen, Western blot, relative to Ctrl 1.00 [2]: 1.16
level of MMP1 protein expression (group without AS4 treatment set as 1) ([3]; AS4 0.01 μM 24 h): 0.77
level of MMP1 protein expression (group without AS4 treatment set as 1) ([3]; AS4 0.1 μM 24 h): 0.64
level of expression of MMP1 protein at different time points, compared with only PMA treatment ([3]; AS4 0.1 μM 24 h, then PMA 100 ng/mL, 6, 12, 18 and 24 hours): inhibited
level of MMP1 protein expression (group without AS4 treatment set as 1) ([3]; AS4 1 μM 24 h): 0.55
MMP1 mRNA expression after AS4 treatment followed by PMA ([4]; AS4 0.01 μM 24 h): 0.98
MMP1 mRNA expression after only AS4 treatment ([4]; AS4 0.01 μM): 0.97
MMP1 mRNA expression after AS4 treatment followed by PMA ([4]; AS4 0.1 μM 24 h): 0.84
MMP1 mRNA expression after only AS4 treatment ([4]; AS4 0.1 μM): 1.07
MMP1 mRNA expression after AS4 treatment followed by PMA ([4]; AS4 1 μM 24 h): 0.53
MMP1 mRNA expression after only AS4 treatment ([4]; AS4 1 μM): 0.93
value of expression of ERK1 (P44) and ERK2 (P42) [5]: 1.7
